Reference: patent publication US20020177180A1, “pH-indicator based assay for selective enzymes” (ThermoGen, Inc., priority 1998, published 2002)

Assays:
Assay type in all cases: biochemical
ThermoGen esterases = test: Initial screening (pH indicator): esters as substrates of the ThermoGen esterases, statements for the esterases as a group; details: for quality as substrate of the ThermoGen esterases (in words), enantiomer pairs: enantiomer pair library, Tables 8-12; for estimated enantioselectivities with ThermoGen esterases (in words): ratio of initial rates of enantiomer pairs; for quality as substrate of the ThermoGen esterases (in words): esters 1-31, initial screening
Method: (§1) Initial screening measures the initial rate of hydrolysis of different esters. The rate of reaction was measured by monitoring the release of protons using a pH indicator, 4-nitrophenol. In this assay, the yellow color of the phenoxide disappears as the reaction proceeds. The amount of ester hydrolyzed can be measured quantitatively, as is known in the art.
(§2) To survey the substrate selectivity of the ThermoGen esterases, the ability of the enzymes to hydrolyze thirty-one different commercially-available esters, Scheme 1 (FIG. 9, Table 6).
To evaluate the potential of the ThermoGen esterases for enantioselective reactions, the initial rates of hydrolysis of the esterases were measured using twenty-one pairs of enantiomers, Scheme 2, FIG. 10 and Tables 8-12. The ratio of these initial rates is an estimated enantioselectivity.

esterase E012 = test: Initial screening of ThermoGen esterases toward esters 1-31 (pH indicator), specific activity; details: 1 mM substrate, pH 7.2, 7 vol % acetonitrile, 25° C.
Method: as §1, §2

esterase E006 = test: as above; details: 1 mM substrate, pH 7.2, 7 vol % acetonitrile, 25° C.
Method: as §1, §2

esterase E015 = test: as above; details: 1 mM substrate, pH 7.2, 7 vol % acetonitrile, 25° C.
Method: as §1, §2

esterase E020 = test: as above; details: 1 mM substrate, pH 7.2, 7 vol % acetonitrile, 25° C.
Method: as §1, §2

esterase E014 = test: as above; details: 1 mM substrate, pH 7.2, 7 vol % acetonitrile, 25° C.
Method: as §1, §2

esterase E016 = test: as above; details: 1 mM substrate, pH 7.2, 7 vol % acetonitrile, 25° C.
Method: as §1, §2

esterase E011 = test: as above; details: 1 mM substrate, pH 7.2, 7 vol % acetonitrile, 25° C.
Method: as §1

In the case of `COC(=O)C(C)CO` (single isomer, unassigned) [Substrate 39], the “quality as substrate of the ThermoGen esterases (in words), enantiomer pairs” value (“quality as substrate … enantiomer pairs” for short) (ThermoGen esterases) is reported as “poorest substrates”.
`COC(=O)C(C)CBr` (single isomer, unassigned) [Substrate 44] was tested, and the “estimated enantioselectivities with ThermoGen esterases (in words)” value (“estimated enantioselectivities” below) (ThermoGen esterases) was “estimated enantioselectivities above two with several esterases”.
`CCOC(=O)C1CCC(=O)N1` (single isomer, unassigned) [Substrate 48] was tested, and the “quality as substrate … enantiomer pairs” value (ThermoGen esterases) was “poorest substrates”.
In the case of `COC(=O)C(N)Cc1c[nH]c2ccccc12` (single isomer, unassigned) [Substrate 50], the “estimated enantioselectivities” value (ThermoGen esterases) is reported as “estimated enantioselectivities above two with several esterases”.
For `COC(=O)CC(C)O` (single isomer, unassigned) [Substrate 40], the “quality as substrate … enantiomer pairs” value (ThermoGen esterases) was “poorest substrates”.
`CCOC(=O)CN.Cl` [Substrate 31] was tested, and the “Specific activity, esterase E012” value (esterase E012) was 6.0 mmol ester hydrolyzed/min/mg protein, the “Specific activity, esterase E006” value (esterase E006) was <0.1 mmol ester hydrolyzed/min/mg protein and the “Specific activity, esterase E015” value (esterase E015) was <0.1 mmol ester hydrolyzed/min/mg protein. For the same compound, the “Specific activity, esterase E020” value (esterase E020) was 1.4 mmol ester hydrolyzed/min/mg protein, the “Specific activity, esterase E014” value (esterase E014) was <0.1 mmol ester hydrolyzed/min/mg protein and the “Specific activity, esterase E016” value (esterase E016) was 13 mmol ester hydrolyzed/min/mg protein. The “Specific activity, esterase E011” value (esterase E011) was 0.1 mmol ester hydrolyzed/min/mg protein and the “quality as substrate of the ThermoGen esterases (in words)” value (ThermoGen esterases) was “usually poor substrates”.
`C=COC(=O)C(C)(C)C` [Substrate 11] was tested, and the “Specific activity, esterase E012” value (esterase E012) was 16 mmol ester hydrolyzed/min/mg protein, the “Specific activity, esterase E006” value (esterase E006) was 0.52 mmol ester hydrolyzed/min/mg protein and the “Specific activity, esterase E015” value (esterase E015) was 4.0 mmol ester hydrolyzed/min/mg protein. For the same compound, the “Specific activity, esterase E020” value (esterase E020) was 1.2 mmol ester hydrolyzed/min/mg protein, the “Specific activity, esterase E014” value (esterase E014) was 0.40 mmol ester hydrolyzed/min/mg protein and the “Specific activity, esterase E016” value (esterase E016) was 20 mmol ester hydrolyzed/min/mg protein. The “Specific activity, esterase E011” value (esterase E011) was 0.80 mmol ester hydrolyzed/min/mg protein and the “quality as substrate of the ThermoGen esterases (in words)” value (ThermoGen esterases) was “poor substrate for all the esterases”.
`COC(=O)C(C)Cl` (single isomer, unassigned) [Substrate 45] was tested, and the “estimated enantioselectivities” value (ThermoGen esterases) was “higher estimated enantioselectivities with most ThermoGen esterases”.
`O=C1CCC(CO)O1` (single isomer, unassigned) [Substrate 51] was tested, and the “quality as substrate … enantiomer pairs” value (ThermoGen esterases) was “poorest substrates”.
`O=C(OCC1CO1)c1ccc([N+](=O)[O-])cc1` (single isomer, unassigned) [Substrate 33] was tested, and the “quality as substrate … enantiomer pairs” value (ThermoGen esterases) was “best substrates”.
For `CC(C)(C)CC(=O)Oc1ccc2nc3ccc(=O)cc-3oc2c1` [Substrate 10, Resorufin t-butylacetate (resorufin 3,3-dimethylbutyrate), reference compound], the “Specific activity, esterase E012” value (esterase E012) was 22 mmol ester hydrolyzed/min/mg protein, the “Specific activity, esterase E006” value (esterase E006) was 5.7 mmol ester hydrolyzed/min/mg protein and the “Specific activity, esterase E015” value (esterase E015) was 5.9 mmol ester hydrolyzed/min/mg protein. For the same compound, the “Specific activity, esterase E020” value (esterase E020) was 14 mmol ester hydrolyzed/min/mg protein, the “Specific activity, esterase E014” value (esterase E014) was 1.0 mmol ester hydrolyzed/min/mg protein and the “Specific activity, esterase E016” value (esterase E016) was 50 mmol ester hydrolyzed/min/mg protein. For the same compound, the “Specific activity, esterase E011” value (esterase E011) was 2.7 mmol ester hydrolyzed/min/mg protein and the “quality as substrate of the ThermoGen esterases (in words)” value (ThermoGen esterases) was “good substrate for several esterases”.
`COC(=O)C(O)c1ccccc1` (single isomer, unassigned) [Substrate 46] was tested, and the “quality as substrate … enantiomer pairs” value (ThermoGen esterases) was “poorest substrates”.
With `COC(=O)C(C)N` (single isomer, unassigned) [Substrate 47] the “quality as substrate … enantiomer pairs” value (ThermoGen esterases) was “poorest substrates” and the “estimated enantioselectivities” value (ThermoGen esterases) was “estimated enantioselectivities above two with several esterases”.
`CC1(C)COC(=O)C1O` (single isomer, unassigned) [Substrate 52] was tested, and the “quality as substrate … enantiomer pairs” value (ThermoGen esterases) was “poorest substrates”.
With `CC1(COC(=O)c2ccc([N+](=O)[O-])cc2)CO1` (single isomer, unassigned) [Substrate 34] the “estimated enantioselectivities” value (ThermoGen esterases) was “estimated enantioselectivities above two with several esterases”.
`CCCC(=O)OC(C)c1ccccc1` (single isomer, unassigned) [Substrate 38] was tested, and the “estimated enantioselectivities” value (ThermoGen esterases) was “higher estimated enantioselectivities with most ThermoGen esterases”.
For `COC(=O)CO` [Substrate 20], the “Specific activity, esterase E012” value (esterase E012) was <2 mmol ester hydrolyzed/min/mg protein, the “Specific activity, esterase E006” value (esterase E006) was 0.11 mmol ester hydrolyzed/min/mg protein and the “Specific activity, esterase E015” value (esterase E015) was <0.1 mmol ester hydrolyzed/min/mg protein. The “Specific activity, esterase E020” value (esterase E020) was <0.2 mmol ester hydrolyzed/min/mg protein, the “Specific activity, esterase E014” value (esterase E014) was <0.1 mmol ester hydrolyzed/min/mg protein and the “Specific activity, esterase E016” value (esterase E016) was <2 mmol ester hydrolyzed/min/mg protein. For the same compound, the “Specific activity, esterase E011” value (esterase E011) was <0.1 mmol ester hydrolyzed/min/mg protein and the “quality as substrate of the ThermoGen esterases (in words)” value (ThermoGen esterases) was “usually poor substrates”.
For `COC(=O)C1COC(C)(C)O1` (single isomer, unassigned) [Substrate 43], the “estimated enantioselectivities” value (ThermoGen esterases) was “estimated enantioselectivities above two with several esterases”.
`CC(=O)OC1CC(C)CCC1C(C)C` (centres unmarked) [Substrate 36] was tested, and the “estimated enantioselectivities” value (ThermoGen esterases) was “estimated enantioselectivities above two with several esterases”.
With `CCCCOC(C)=O` [Substrate 25] the “Specific activity, esterase E012” value (esterase E012) was <2 mmol ester hydrolyzed/min/mg protein, the “Specific activity, esterase E006” value (esterase E006) was 0.54 mmol ester hydrolyzed/min/mg protein and the “Specific activity, esterase E015” value (esterase E015) was 1.0 mmol ester hydrolyzed/min/mg protein. For the same compound, the “Specific activity, esterase E020” value (esterase E020) was 2.0 mmol ester hydrolyzed/min/mg protein, the “Specific activity, esterase E014” value (esterase E014) was 0.21 mmol ester hydrolyzed/min/mg protein and the “Specific activity, esterase E016” value (esterase E016) was 13 mmol ester hydrolyzed/min/mg protein. For the same compound, the “Specific activity, esterase E011” value (esterase E011) was 0.5 mmol ester hydrolyzed/min/mg protein.
In the case of `CCCCCCCC(=O)OCC1COC(C)(C)O1` (single isomer, unassigned) [Substrate 35], the “quality as substrate … enantiomer pairs” value (ThermoGen esterases) is reported as “best substrates”.
`CCCC(=O)OCC1COC(C)(C)O1` (single isomer, unassigned) [Substrate 32] was tested, and the “quality as substrate … enantiomer pairs” value (ThermoGen esterases) was “best substrates”.
`C=COC(=O)CCCCCCC` [Substrate 5] was tested, and the “Specific activity, esterase E012” value (esterase E012) was 50 mmol ester hydrolyzed/min/mg protein, the “Specific activity, esterase E006” value (esterase E006) was 960 mmol ester hydrolyzed/min/mg protein and the “Specific activity, esterase E015” value (esterase E015) was 320 mmol ester hydrolyzed/min/mg protein. The “Specific activity, esterase E020” value (esterase E020) was 1200 mmol ester hydrolyzed/min/mg protein, the “Specific activity, esterase E014” value (esterase E014) was 8.0 mmol ester hydrolyzed/min/mg protein and the “Specific activity, esterase E016” value (esterase E016) was 1200 mmol ester hydrolyzed/min/mg protein. The “Specific activity, esterase E011” value (esterase E011) was 260 mmol ester hydrolyzed/min/mg protein.
In the case of `CCCC(=O)OCC(COC(=O)CCC)OC(=O)CCC` [Substrate 29], the “Specific activity, esterase E012” value (esterase E012) is reported as 37 mmol ester hydrolyzed/min/mg protein, the “Specific activity, esterase E006” value (esterase E006) is reported as 370 mmol ester hydrolyzed/min/mg protein and the “Specific activity, esterase E015” value (esterase E015) is reported as 550 mmol ester hydrolyzed/min/mg protein. For the same compound, the “Specific activity, esterase E020” value (esterase E020) was 560 mmol ester hydrolyzed/min/mg protein, the “Specific activity, esterase E014” value (esterase E014) was 280 mmol ester hydrolyzed/min/mg protein and the “Specific activity, esterase E016” value (esterase E016) was 130 mmol ester hydrolyzed/min/mg protein. For the same compound, the “Specific activity, esterase E011” value (esterase E011) was 450 mmol ester hydrolyzed/min/mg protein.
